Laboratory results: patent US20050096282A1, “Adeno-associated virus-delivered ribozyme compositions and methods for the treatment of retinal diseases” (priority 1997, published 2005)

Legend:
[1] = tested on: HREC; experiment: HREC proliferation, cell count; assay type: cell-based, human; conditions: for Proliferation Cell Count: HREC, agonists 10 μm, with NECA: CPX 20 nM, SCH 60 nM, XAC, Enprofylline, JW V108 10 μm, * p < 0.005 vs untreated; for increase in HREC number: agonist alone, 48 hr
Method: (§1) The subtype of adenosine receptor (A2B) that mediates the proliferative effect of adenosine on HREC was determined by the following studies. […] In contrast, neither the A2A adenosine receptor agonist CGS21680 (2-p-(2-carboxyethyl) phenethylamino-5′-N-ethylcarboxamidoadenosine) at concentrations ranging from 10 nM to 10 μM, nor the A1 adenosine receptor agonist CPA (N^6-cyclopentyladenosine) at concentrations ranging from 10 nM to 10 μM increased BrdU incorporation by HRECs. […] In contrast, neither the selective A1 adenosine receptor antagonist CPX (8-cyclopentyl-1,3-dipropylxanthine) at 20 nM, nor the selective A2A adenosine receptor antagonist SCH58261 (5-amino-7-(2-phenylethyl)-2-(2-furyl)-pyrazolo(4,3-E)-1,2,4-trizolo(1,5-c) pyrimidine) at 60 nM attenuated the stimulatory effect of NECA on BrdU incorporation by HRECs. These findings indicate that the proliferative effects of NECA are mediated by the A2B adenosine receptor in HREC in culture (Table 3).
The data for cell counts were consistent with those for BrdU incorporation. […] These compounds, like XAC, blocked the proliferative effects of NECA as measured by cell counts, supporting that the proliferative effects of NECA on HREC are mediated by the adenosine A2B receptor (Table 3).

[2] = tested on: HREC; experiment: BrdU incorporation (DNA synthesis) in HRECs; assay type: cell-based, human; conditions: for Proliferation BrdU Incorporation: HREC, agonists 10 μm, with NECA: CPX 20 nM, SCH 60 nM, XAC 10 μm, * p < 0.005 vs untreated
Method: as §1

[3] = tested on: HREC; experiment: VEGF protein in HREC after adenosine receptor agonists and antagonists; assay type: cell-based, human; conditions: agonists 10 μm, with NECA: CPX 20 nM, SCH 60 nM, XAC 10 μm, * p < 0.005 vs untreated
[4] = tested on: HREC; experiment: VEGF mRNA in HREC after adenosine receptor agonists and antagonists; assay type: cell-based, human; conditions: agonists 10 μm, with NECA: CPX 20 nM, SCH 60 nM, XAC 10 μm, * p < 0.005 vs untreated
[5] = tested on: HREC; experiment: cAMP content of intact HRECs; assay type: cell-based, human
Text: The cAMP content of intact HRECs following treatment with adenosine receptor agonists and antagonists was next examined. […] The effect of selective A1 and A2A adenosine receptor antagonists on NECA-induced accumulation of cAMP was also examined.

[6] = tested on: HREC; experiment: ERK/MAPK activation in HREC, Western blot; assay type: cell-based, human; conditions: for ERK activation by agonist: agonist alone; for effect on NECA-stimulated ERK activation: HREC pretreated with antagonist or inhibitor, then NECA
Method: HREC were serum-starved for 24 hr and pre-treated for 20 min with 1 U/mL adenosine deaminase prior to adding NECA. Activated ERK/MAPK was visualized on Western blots by enhanced chemiluminescence using EC10 monoclonal antibody;
HRECs were serum-starved for 24 hr and pre-treated with adenosine deaminase (ADA, 1 U/mL) for 20 min, incubated with the antagonists in the presence of ADA for 10 min. NECA (1 nM-10 μM, 10 min) was used to activate ERK.
In order to determine the intracellular signaling pathways activated by NECA that regulate ERK activity, we pretreated cells for 30 min with the ERK/MPAK kinase (MEK) inhibitor PD98059 or the PKA inhibitor H-89 and stimulated with NECA for 5 min.
Cells were pre-treated with both antagonists for 10 min and stimulated with increasing concentrations of NECA.

[7] = tested on: HREC; experiment: CREB phosphorylation at Ser133 in HREC, western blot; assay type: cell-based, human; conditions: HREC pretreated
Text: Phosphorylation of cAMP response element binding protein (CREB) at Ser^133 was examined following NECA stimulation in order to determine whether activation of cAMP pathways by NECA occurred independently of ERK activation. Cells were pretreated with PD98059 or H-89 and assayed for active CREB by western blot.

[8] = tested on: oxygen-induced retinal neovascularization; experiment: Oxygen-induced retinal neovascularization in the neonatal mouse; assay type: in vivo; conditions: daily IP 30 mg/Kg body weight; vs uninjected control
Text: The potential efficacy of administering adenosine receptor antagonists to reduce retinal neovascularization brought on by ischemic insult was examined. In the neonatal mouse model of oxygen-induced retinopathy, 7-day-old mice are placed with their nursing dams in a 75% oxygen atmosphere for 5 days. Upon return to normal air, these mice develop retinal neovascularization, with peak development occurring 5 days after their return to normoxia. During this time, the animals receive by daily intaperitoneal injection a pharmacologically relevant concentration of adenosine receptor antagonist or vehicle (0.15% vol./vol. DMSO in normal saline) alone. Exemplary antagonists tested include XAC and 3-n-propylxanthine (Enprofylline), and JW V108, both at a concentration of 30 mg/Kg of body weight. […]
Individuals masked to the identity of treatment counted all cell nuclei above the inner limiting membrane for all 20 sections from each eye. […] The efficacy of treatment with a particular antagonist was then calculated as the fraction of total nuclei in antagonist or vehicle treatment over total nuclei in uninjected control. […] Whole retinas from these eyes were then flat-mounted for qualitative assessment of retinal neovascularization by fluorescence microscopy.

[9] = tested on: HREC; experiment: HREC chemotaxis; assay type: cell-based, human
Text: The role of the A2B receptor was further characterized by examining the effects of the A2B antagonists JW V108 and Enprofylline on HREC chemotaxis, capillary tube formation and signal transduction pathways following stimulation with the adenosine analogue NECA.

Compound | Proliferation Cell Count [1] [fold change vs. untreated] | increase in HREC number [1] | Proliferation BrdU Incorporation [2] [fold change vs. untreated] | VEGF Protein [3] [fold change vs. untreated] | VEGF MRNA [4] [fold change vs. untreated] | CAMP Content ([5]; HREC, agonists 10 μm, with NECA: CPX 20 nM, SCH 60 nM, XAC 10 μm, * p < 0.005 vs untreated) [fold change vs. untreated] | effect on cAMP content of HREC ([5]; agonist alone, concentrations up to 100 μM) | ERK activation by agonist ([6]; HREC) | basal ERK activation ([6]; HREC, CGS 1-10 μM, H-89 30 min pretreatment) | inhibition of increase in cell number induced by NECA ([1]; 10 μM NECA) | attenuation of NECA-stimulated BrdU incorporation by HRECs ([2]; XAC 10 μM, CPX 20 nM, SCH58261 60 nM) | inhibition of NECA-induced increase in cAMP content in HRECs ([5]; NECA 10 μM) | effect on NECA-stimulated ERK activation [6] | CREB activation (phosphorylation) following NECA stimulation [7] | inhibition of oxygen-induced retinal neovascularization [8] [%] | inhibition of NECA-induced HREC chemotaxis [9]
CCNC(=O)[C@H]1O[C@@H](n2cnc3c(N)nc(NCCc4ccc(CCC(=O)O)cc4)nc32)[C@H](O)[C@@H]1O [CGS21680, 2-p-(2-carboxyethyl) phenethylamino-5′-N-ethylcarboxamidoadenosine] | 1.1 ± 0.03 | neither CGS21680 nor CPA caused an increase in cell number | 1.0 ± 0.08 | 1.3 ± 0.20 | 0.8 ± 0.37 | 1.1 ± 1.02 | no significant effect | did not activate ERK | reduced the basal ERK levels | – | – | – | – | – | – | –
CCCn1c(=O)c2[nH]c(-c3ccc(OCC(=O)NCCN)cc3)nc2n(CCC)c1=O [XAC, xanthine amine congener] | – | – | – | – | – | – | – | – | – | significantly inhibited | completely prevented | completely blocked | decreased ERK activation by high concentrations of NECA | blocked CREB phosphorylation | 54 | –
CCCn1c(=O)[nH]c(=O)c2[nH]cnc21 [Enprofylline, 3-n-propylxanthine] | – | – | – | – | – | – | – | – | – | – | – | – | completely abolished ERK activation | – | 70 | inhibited
OC[C@H]1O[C@@H](n2cnc3c(NC4CCCC4)ncnc32)[C@H](O)[C@@H]1O [CPA, N^6-cyclopentyladenosine] | 0.9 ± 0.04 | neither CGS21680 nor CPA caused an increase in cell number | 0.8 ± 0.06 | 1.1 ± 0.27 | 1.1 ± 0.22 | – | – | capable of stimulating ERK | – | – | – | – | – | – | – | –
